How the values were obtained:
Test in all cases: relative viability (nuclei count vs DMSO), 5 days (fraction); higher = more cells survive
[1] = compound: CC1=NC=CC(=C1)C2=CC=C(C=C2)CC(=O)NC3=CC=C(C=C3)C4=CN=CC=C4 [Wnt-C59] + CS(=O)(=O)N1CCN(Cc2cc3nc(-c4cccc5[nH]ncc45)nc(N4CCOCC4)c3s2)CC1 [Pictilisib] (partner 1 µM)
Procedure, shortened: (§1)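 A single step with final 0.05% Triton X-100, 1% formaldehyde and 1 ug/ml Hoechst fixed the cells and stained nuclei 5 days after treatment. Lung cancer cell lines in 1536-well plates had been treated by pin tool the day after seeding with one drug alone or a fixed anchor-drug dose plus five library-drug doses (not always all listed) in √10 steps, and nuclei were counted on 4× images. Relative viability is the ratio of nuclei in treated wells to nuclei in vehicle wells, taken as the median of duplicate plates.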

[2] = compound: CS(=O)(=O)CCNCc1ccc(-c2ccc3ncnc(Nc4ccc(OCc5cccc(F)c5)c(Cl)c4)c3c2)o1 [Lapatinib] + CC(=O)Nc1cccc(-n2c(=O)n(C3CC3)c(=O)c3c(Nc4ccc(I)cc4F)n(C)c(=O)c(C)c32)c1 [Trametinib] (partner 0.02 µM)
Procedure, shortened: as §1

[3] = compound: CS(=O)(=O)CCNCc1ccc(-c2ccc3ncnc(Nc4ccc(OCc5cccc(F)c5)c(Cl)c4)c3c2)o1 [Lapatinib] + Cc1nc(Nc2ncc(C(=O)Nc3c(C)cccc3Cl)s2)cc(N2CCN(CCO)CC2)n1 [Dasatinib] (partner 0.075 µM)
Procedure, shortened: as §1

[4] = compound: CS(=O)(=O)CCNCc1ccc(-c2ccc3ncnc(Nc4ccc(OCc5cccc(F)c5)c(Cl)c4)c3c2)o1 [Lapatinib] + O=C(c1cc(Cc2n[nH]c(=O)c3ccccc23)ccc1F)N1CCN(C(=O)C2CC2)CC1 [Olaparib] (partner 8 µM)
Procedure, shortened: as §1

Cell Line | relative viability ([1]; first compound 0.001 µM) | relative viability ([1]; first compound 0.01 µM) | relative viability ([1]; first compound 0.03162 µM) | relative viability ([1]; first compound 0.1 µM) | relative viability ([2]; first compound 0.02 µM) | relative viability ([2]; first compound 0.06325 µM) | relative viability ([2]; first compound 0.2 µM) | relative viability ([2]; first compound 0.6325 µM) | relative viability ([2]; first compound 2 µM) | relative viability ([3]; first compound 0.02 µM) | relative viability ([3]; first compound 0.06325 µM) | relative viability ([3]; first compound 0.2 µM) | relative viability ([3]; first compound 0.6325 µM) | relative viability ([3]; first compound 2 µM) | relative viability ([4]; first compound 0.02 µM) | relative viability ([4]; first compound 0.06325 µM) | relative viability ([4]; first compound 0.2 µM) | relative viability ([4]; first compound 0.6325 µM) | relative viability ([4]; first compound 2 µM)
SK-LU-1 | 0.476 | 0.558 | 0.638 | 0.559 | 0.377 | 0.43 | 0.439 | 0.557 | 0.507 | 0.162 | 0.159 | 0.179 | 0.205 | 0.182 | 0.298 | 0.449 | 0.565 | 0.555 | 0.433
SK-MES-1 | 0.392 | 0.368 | 0.305 | 0.322 | 0.512 | 0.446 | 0.425 | 0.339 | 0.275 | 0.243 | 0.143 | 0.157 | 0.19 | 0.126 | 0.726 | 0.699 | 0.569 | 0.464 | 0.221
SW 1573 | 0.452 | 0.544 | 0.563 | 0.404 | – | 0.577 | 0.527 | 0.606 | 0.515 | 0.389 | 0.381 | 0.738 | 0.434 | 0.442 | 0.401 | 0.443 | 0.519 | 0.444 | 0.522

Source: the supplement of paper PMC10307832
